Literature values, collected in patent US20080227813A1, “Pharmaceutical compositions and methods for treating diseases associated with neurodegeneration” (priority 2006, published 2008).

Tested on: patients suffering from ALS
Conditions: riluzole alone, previous studies; cited from earlier work

## Nc1nc2ccc(OC(F)(F)F)cc2s1 [riluzole, Riluzole]
  effect on VC: failed to demonstrate any effect
